Read-outs that look alike come from different tables or passages of the source.
Legend:
[1] = pH of quencher stock and of RBC mixture; format: physicochemical; settings: for pH of stock quencher: room temperature
Protocol: The effect of various quenching conditions on the pH of a red blood cell composition was determined for various treatment conditions. The quencher solutions were prepared at a concentration of 600 mM in 8% dextrose monohydrate. […] Glutathione was assessed at 2 mM (acidic) or 20 mM (2 eq. of base). […] The pH of the quencher solution, either unmodified or neutralized, was measured using a standard Epoxy Calomel electrode (Beckman Instruments) at room temperature. […] The samples were mixed and the pH at room temperature was measured using the same electrode as described above.
In these, the appropriate amount of 600 mM stock was added, mixed with an appropriate volume of 8% dextrose to provide the same volume addition to each RBC sample where in one study, with varied glutathione concentrations, the pH was measured after adding glutathione and after adding PIC-1. […] Similar samples were also assessed for the inactivation of S. epidermidis. […] For gel card analysis, after incubation, the RBC were washed in BBS and were diluted in BBS to a final hematocrit of 4%. A 25 μL aliquot of each was mixed with 15 μL of rabbit polyclonal anti-acridine sera diluted either 1:4 or 1:100 in BBS and the mixture was incubated at 37° C. for 30 minutes. The cells were subsequently washed with 1.5 mL BBS. After washing was complete, the cells were mixed with goat anti-rabbit Fab′2 fragment anti H+L chains (1:4 dilution in PBS) and incubated at 37° C. for 30 minutes.

[2] = test system: Serratia marcescens; format: cell-based; settings: Table 5B: 20 mM Cys+2 eq base only, no PIC-1
[3] = test system: red blood cells; format: cell-based; settings: 20 mM Cys+2 eq NaOH only, no PIC-1
Protocol: In another assay, the rabbit polyclonal sera may be reacted with treated red blood cells. After washing off unbound antibody, a FITC labeled goat anti-rabbit Fab′2 fragment (anti H+L chains, Caltag) is added. The binding of FITC label to the red blood cells correlates with the amount of acridine bound to the red blood cell surface, and is assessed by FACScan™ analysis (Becton, Dickinson and Co., NJ). The relative modification of the red blood cells is determined from the FACScan™ mean fluorescence value.
A 20 mL sample of leukoreduced whole blood (Blood Source, Sacramento, Calif.) was centrifuged at 4,100×g for 5 minutes at room temperature in each of four 50 mL centrifuge tubes. The supernatant was removed from each tube to provide red cell concentrate (RCC). […] For each washed RCC, cells were resuspended in 5 mL of the solution used for washing. This is now referred to as the RBC test sample. […] These samples were incubated for 20 hours at room temperature. After incubation, the RBC were washed in BBS (Blood Bank Saline, 0.9% saline, unbuffered, Fisher Scientific) and were diluted to a final hematocrit of 4%. A 25 μL aliquot of each was mixed with 15 μL of rabbit polyclonal anti-acridine sera diluted 1:100 in BBS and the mixture was incubated at 37° C. for 30 minutes. The cells were subsequently washed with 1.5 mL BBS. After washing was complete, the cells were mixed with 50 μL of FITC labeled goat anti-rabbit Fab′2 fragment (1:64 dilution in BBS) and incubated at 37° C. for 30 minutes. […] Note that the quenching improves as glutathione is neutralized with increasing amounts of sodium hydroxide.
The FACScan analysis of the binding of rabbit anti-acridine sera to treated red cells was used to assess a variety of quenching conditions. […] The tables represent data from two different experiments, each with samples treated under standard conditions or with 20 mM neutralized glutathione. […] The data within an experiment provides the relative efficacy of the various treatments. Because the assay may depend on the lot of red blood cells used, the absolute values of mean fluorescence may vary from one study to the next, such that relative values should only be compared within a given experiment. […] Neutralized glutathione at 20 mM results in close to background levels.
An untreated control sample as well as a standard sample (co-addition of 2 mM acidic glutathione with 0.2 mM PIC-1) were also assessed.
Full units of red cell concentrates (Interstate Blood Bank, Inc., Memphis, Tenn.) were leukoreduced. A volume of 200 mL of this RCC (80% hematocrit) was mixed with 94 mL of Erythrosol or 100 mL of Adsol (Baxter Healthcare Corp., Deerfield, Ill.) as control (unit 1). A volume of 20 mL 8% dextrose was used to dissolve PIC-1 (mg) and acid glutathione (mg) and added to one unit to provide 0.2 mM PIC-1 and 2 mM glutathione (unit 2). […] For the glutathione, 1.2 mL of 10 N NaOH was added (2 equivalents). The PIC-1 was mixed with the unit, followed 1 minute later (unit 3) or 5 minutes later (unit 4) by glutathione. For unit 5, neutralized glutathione was mixed first, followed 10 minutes later by the PIC-1. […] All units were mixed by grasping the ends of the blood bag and mixing in a FIG. 8 motion 30 times. These were then incubated at room temperature for 20 hours total. A compound adsorption device (CAD), comprising a polymeric resin contained within a mesh pouch, was used for all but the control sample. This device is intended to remove residual PIC-1, PIC-1 breakdown products, and glutathione from the samples. Samples were incubated for 8 hours, then transferred to a second blood bag containing the CAD and incubated for an additional 12 hours. Following the room temperature incubation, samples were transferred to a refrigerator (4° C.) and stored up to 43 days.

[4] = test system: Staphylococcus epidermidis; experiment: Inactivation of Staphylococcus epidermidis in RBC (colony count); settings: Table 5C: 20 mM cysteine+1 eq base only, no PIC-1
Protocol: Whole blood (Blood Source, Sacramento, Calif.) was used to prepare a red blood cell (RBC) composition by centrifuging to provide packed RBC (34 mL of approximately 90% hematocrit), then adding 17 mL Erythrosol to a hematocrit of approximately 60%. Erythrosol is a red blood cell additive (Baxter Healthcare Corp., Deerfield, Ill.) that may be prepared by combining sodium citrate dihydrate (7.82 g); sodium acid phosphate dihydrate (0.73 g); sodium phosphate dihydrate (3.03 g); adenine (0.22 g); mannitol (7.74 g); and glucose (9 g) in 1 liter of distilled water. The bacterial preparation was then added ( 1/100th of the total volume) to the RBC/Erythrosol to provide contaminated RBC. The contaminated RBC was divided into several samples and treated according to Table 2, where PIC-1 is β-alanine, N-(acridin-9-yl), 2-[bis(2-chloroethyl)amino]ethyl ester. The PIC-1 and glutathione (Aldrich, St. Louis, Mo.) were dissolved in a solution of 8% dextrose monohydrate at about 15× the desired concentration in the final red blood cell composition when added together, or 30× when added separately. […] For separate addition using 20 mM neutralized glutathione, PIC-1 is prepared by dissolving 7.6 mg in 2.5 mL of 8% dextrose, glutathione is prepared by dissolving 460 mg in 1.9 mL of 8% dextrose and mixing with 0.6 mL of 5N NaOH, then adding 165 μL of each solution to 4.67 mL RBC in the appropriate order. Following treatment, the samples were incubated for 2 hours, and 100 μL of each was serially diluted and plated on LB plates. These were incubated overnight at 37° C. in order to assess bacterial growth. The bacterial titer was determined by counting colonies on the plates and based on the dilution of the plate, the titer was determined. For example, with 10-fold serial dilutions, 30 colonies counted on the 5th dilution of the original solution, where 0.1 mL are plated, would indicate an initial titer of (30×10^5)/0.1=3×10^7, or 7.47 log. […] Note that for most samples in Table 2A the PIC-1 and glutathione were formulated together. […] The study was repeated with sequential addition of the two components, as indicated in Table 2B (time delay of 0 indicates they were added in the same solution).
Additional studies were done using S. epidermidis, where the overnight culture was used without dilution. […] PIC-1 is at 0.2 mM in all samples.
For these samples, the NaOH stock was prepared at 10N and appropriate volumes of the various components were used following the procedures above. Standard conditions and/or 20 mM neutralized glutathione (GSH) were run for comparison.

[5] = 600 mM in 8% dextrose + 1 eq. base
[6] = Table 10: RBC + 20 mM quencher + 1 eq. base + 0.2 mM PIC-1
[7] = Table 10: RBC + 20 mM quencher + 2 eq. base + 0.2 mM PIC-1

| Compound | pH of stock quencher [1, 5] | pH of stock quencher ([1]; 600 mM in 8% dextrose + 2 eq. base) | pH of final mixture [1, 6] | pH of final mixture [1, 7] | Log S. marcescens reduction [2] [Log] | Log S. marcescens titer [2] [Log] | mean fluorescence ([3]; Table 9A: control) | mean fluorescence ([3]; Table 9B: control) | pH of final mixture ([1]; Table 10: RBC + 20 mM quencher, no base + 0.2 mM PIC-1) | Log S. epidermidis reduction [4] [Log] | Log S. epidermidis titer [4] [Log] |
| --- | --- | --- | --- | --- | --- | --- | --- | --- | --- | --- | --- |
| CSCC[C@H](N)C(=O)O [methionine, reference compound] | 11.2 | 13.1 | 7.5 | 8 |  |  |  |  |  |  |  |
| N[C@@H](CS)C(=O)O [cysteine] |  |  | 7.4 | 7.8 | 0.3 | 7.3 | 1.9 | 1.99 | 6.5 | 0.1 | 7.1 |
| CC(=O)N[C@@H](CS)C(=O)O [N-acetyl cys, N-acetyl cysteine] | 6 |  | 6.7 |  |  |  |  |  |  |  |  |
